Measurements from patent publication US20200155731A1, “DEVICE AND METHOD FOR PROMOTING RAPID STRUT COVERAGE AND VASCULAR ENDOTHELIAL COVERAGE” (priority 2017, published 2020).

How the values were obtained:
human vascular EC = assay: EC proliferation in bottles containing human EC, gene silencers vehicle lentivirus and plasmid; format: cell-based; details: Experiment 2; lentivirus vehicle for siRNA; FIG. 2
Protocol: (§1) Therefore, Experiment 2 was carried out with the following groups: lentivirus+gene silencer TNFRSF11B-siRNA, lentivirus+gene silencer NCF4-siRNA, full control (no vehicle and no drug), lentivirus+gene silencer SM22a-siRNA+glyceraldehyde 3-phosphate dehydrogenase (GAPDH) (vehicle control 1), lentivirus+gene silencer MYH11-siRNA+GAPDH (vehicle control 2), sirolimus (drug control 1), and paclitaxel (drug control 2).
(§2) TNFRSF11B-siRNA and NCF4-siRNA are gene silencers of the TNFRSF11B and NCF4 genes, respectively. The delivery system of gene silencers was developed by inserting the respective gene silencers in a plasmid which is carried by a lentivirus. Lentivirus particles are intracellular transduction-ready viruses containing plasmids with gene silencers. After transduction, cells express permanently gene silencers. The density of cell cultures 24 hours before transfection was 2×10^5 cells/10 cm2 in culture medium. […]
(§3) Two control groups containing a lentivirus and a gene silencer of smooth muscle protein 22α (SM22α) or smooth muscle myosin heavy chain (MYH11) were used to assess the vehicle. […] Thus, said two gene silencers, SM22α-siRNA and MYH11-siRNA, were marked with glyceraldehyde 3-phosphate dehydrogenase (GAPDH), called bioconjugates, to ensure by means of fluorescence microscopy that the gene silencers effectively entered VSMC and EC. […]

human VSMC [1] = assay: VSMC proliferation in bottles containing human VSMC, vehicle nanoparticles (DSPE-PEG); format: cell-based
Source text: […], 2 distearoyl-sn-glycero-3-phosphoethanolamine-Nmethxy (polyethyleneglycol)-2000 (DSPE-PEG) as a drug and gene silencer carrying vehicle instead of lentiviruses and plasmids which were used in the previous experiments. That being so, 8 groups were included for both assessment of nanoparticles as a vehicle and final confirmation of the previous results: control (nanoparticles only), MYH11-siRNA in nanoparticles, CNN1-siRNA in nanoparticles, sirolimus in nanoparticles, paclitaxel in nanoparticles, TNFRSF11B-siRNA in nanoparticles, NCF4-siRNA in nanoparticles, and MYL9-siRNA+GAPDH in nanoparticles.
(§4) The groups of sirolimus in nanoparticles and paclitaxel in nanoparticles were included to compare the efficacy in inhibiting VSMC proliferation. The groups of NFRSF11B-siRNA in nanoparticles and NCF4-siRNA in nanoparticles were tested again with a different vehicle for final confirmation of the negative results. The group of MYL9-siRNA+GAPDH in nanoparticles was studied to evaluate the vehicle efficacy, that is, to ensure that gene silencers would enter VSMC and EC using nanoparticles as a vehicle. […] MYL9-siRNA gene silencer was marked with GAPDH for later verification of its transfection into the cells through fluorescence microscopy. Finally, pure nanoparticles were used as a vehicle control, that is, with neither drug nor gene silencer. […]

human VSMC [2] = assay: VSMC proliferation in bottles containing human VSMC, gene silencers vehicle lentivirus and plasmid; format: cell-based; details: Experiment 2; lentivirus vehicle for siRNA; FIG. 1
Protocol: as §1, §2, §3

human EC = assay: EC proliferation in bottles containing human EC, vehicle nanoparticles (DSPE-PEG); format: cell-based; details: Experiment 5, control nanoparticles only, FIG. 7
Protocol: Experiment 5 was carried out by using nanoparticles of 1, 2 distearoyl-sn-glycero-3-phosphoethanolamine-Nmethxy (polyethyleneglycol)-2000 (DSPE-PEG) as a drug and gene silencer carrying vehicle instead of lentiviruses and plasmids which were used in the previous experiments. That being so, 8 groups were included for both assessment of nanoparticles as a vehicle and final confirmation of the previous results: control (nanoparticles only), MYH11-siRNA in nanoparticles, CNN1-siRNA in nanoparticles, sirolimus in nanoparticles, paclitaxel in nanoparticles, TNFRSF11B-siRNA in nanoparticles, NCF4-siRNA in nanoparticles, and MYL9-siRNA+GAPDH in nanoparticles.
as §4, with “microscopy.” for “microscopy. Finally, pure nanoparticles were used as a vehicle control, that is, with neither drug nor gene silencer.”

swine coronary arteries = assay: In vivo study in swine: stent deployment in the coronary arteries, intravascular ultrasound follow-up; design: species or system Large White swine
Source text: Experiment 6 was an in vivo study in swine comparing MYH11-siRNA-eluting stent and CNN1-siRNA-eluting stent with bare metal stent and sirolimus-eluting stent.
Eighteen commercially available bare metal stents 2.75×15 mm were covered with MYH11-siRNA in nanoparticles (9 stents) or CNN1-siRNA in nanoparticles (9 stents) using a spray nozzle machine to create an abluminal cover in order to deliver the gene silencers locally in the inner surface of the vessel.
The hybrid lipid-polymer nanoparticles loaded with gene silencers (siRNA) were prepared by the nanoprecipitation method. The aqueous phase consisted of the gene silencer solubilized in 10 mL of water Milli Q under stirring and at a bath temperature of 30° C. The organic phase containing a lipid-cationic compound DSPE-PEG-NH2 (1,2-distearoyl-sn-glycero-3-phosphoethanolamine-N-[amino(polyethyleneglycol)-2000] and the PLGA polymer was then injected into the aqueous phase using a 20 G needle, the suspension being kept under moderate stirring for 5 minutes and then concentrated to a final volume of 10 mL in a rotatory evaporator to eliminate the organic solvent and adjust the final concentration. MYH11-siRNA and CNN1-siRNA concentrations ranging from 10 μg/ml to 100 μg/ml were tested.
After covering the abluminal surface of the 18 stents with MYH11-siRNA in nanoparticles (9 stents) or CNN1-siRNA in nanoparticles (9 stents), the stents were left to dry during 60 minutes, packaged in DuPont Tyvek™ and then sterilized with ethylene oxide (EtO) at 50 C.
Nine Large White swine were submitted to stent deployment in the coronary arteries, 1 stent being deployed in the left anterior descendent (LAD), 2 stents in the circumflex (CX) and 1 stent in the right coronary artery (RCA). The stents were deployed in a diameter ratio of 1.1 in relation to the coronary artery diameter, that is, with a mild oversize, in order to stimulate a similar inflammatory reaction that causes in-stent restenosis, to evaluate the efficacy of the gene silencers in controlling in-stent neointimal hyperplasia in a in vivo model. This oversized stent deployment protocol was previously validated (Lowe H C, Schwartz R S, Mac Neill B D, Jang I K, Hayase M, Rogers C, et al. The porcine coronary model of in-stent restenosis: Current status in the era of drug-eluting stents. Catheter Cardiovasclnterv. 2003:60:515-23.)
The prolonged time of stent re-endothelialization is the critical point of the current commercially available drug-eluting stents. So sirolimus and analogues as paclitaxel decrease the proliferation of vascular smooth muscle cells preventing in-stent neointimal hyperplasia, as well as suppress the proliferation of endothelial cells prolonging the time of stent re-endothelialization. […] Therefore, in order to evaluate the time of stent re-endothelialization, angiographic and intravascular ultrasound follow-up were scheduled at 30, 90 and 180 days after stent deployment.
The intravascular ultrasound analysis was performed tracing 31 frames for each stent with 0.5 mm apart each frame from the distal stent border to the proximal stent border. The data were analysed using one-way ANOVA with Bonferroni post hoc test.
The data of intravascular ultrasound in the index procedure as well as the results regarding in-stent neointimal proliferation at 30, 90 and 180 days after stent deployment are shown in table 1, while the comparative data of intravascular ultrasound regarding stent re-endothelialization at 30, 90 and 180 days after stent deployment are shown in table 2.

[3] = 180 days after stent deployment
[4] = intravascular ultrasound, follow-up (time not specified)

Row | Compound | EC cell proliferation in relation to the full control group (human vascular EC) | inhibition of VSMC proliferation in comparison with the control (human VSMC [1]; Experiment 5, control nanoparticles only, FIG. 6) | VSMC cell proliferation as compared to the full control group (human VSMC [2]) | EC proliferation compared to the control group (human EC) | human VSMC proliferation (human VSMC [1]; Experiment 7, FIG. 8) [%] | Obstruction: average of percentual obstruction in the whole stent length (swine coronary arteries; 30 days after stent deployment) [%] | re-endothelialization (stent struts coverage) from intravascular ultrasound (swine coronary arteries; 30 days after stent deployment) [%] | Obstruction: average of percentual obstruction in the whole stent length (swine coronary arteries; 90 days after stent deployment) [%] | re-endothelialization (stent struts coverage) from intravascular ultrasound (swine coronary arteries; 90 days after stent deployment) [%] | Obstruction: average of percentual obstruction in the whole stent length (swine coronary arteries; [3]) [% b] | re-endothelialization (stent struts coverage) from intravascular ultrasound (swine coronary arteries; [3]) [%] | LLL: late lumen loss (swine coronary arteries; intravascular ultrasound, follow-up) [mm] | MLA (minimal luminal area) follow-up (swine coronary arteries; [4]) [mm^2 b] | MLD (minimal luminal diameter) follow-up (swine coronary arteries; [4]) [mm]
1 | CC(=O)O[C@H]1C(=O)[C@@]2(C)[C@H]([C@H](OC(=O)c3ccccc3)[C@]3(O)C[C@H](OC(=O)[C@H](O)[C@@H](NC(=O)c4ccccc4)c4ccccc4)C(C)=C1C3(C)C)[C@]1(OC(C)=O)CO[C@@H]1C[C@@H]2O [paclitaxel] | statistically significant inhibition | significant inhibition | statistically significant inhibition | statistically significant inhibition | – | – | – | – | – | – | – | – | – | –
2 | CO[C@H]1C[C@@H]2CC[C@@H](C)[C@@](O)(O2)C(=O)C(=O)N2CCCC[C@H]2C(=O)O[C@H]([C@H](C)C[C@@H]2CC[C@@H](O)[C@H](OC)C2)CC(=O)[C@H](C)/C=C(\C)[C@@H](O)[C@@H](OC)C(=O)[C@H](C)C[C@H](C)/C=C/C=C/C=C/1C [sirolimus] | – | – | – | – | 19 | 11.4 ± 2.2 | 48 ± 3.3 | 12.3 ± 2.1 | 89 ± 3.8 | 13.8 ± 2.4 | 100 | 0.33 ± 0.12 | 6.21 ± 0.16 | 2.68 ± 0.13
